Each block holds one molecule with its values, some of them ahead of it. Active and inactive are the calls of the source.
How the values were obtained:
[1] = molecular target: T1, Heat shock factor protein 1 (Mus musculus, UniProt P38532); assay: inhibition of MG132-induced HSE-luciferase signal, confirmation, cell-based, NIH3T3, luminescence, dose retest (AID 2382); assay type: functional;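 note: NIH3T3 fibroblasts with HSF1-driven luciferase reporter stressed by proteasome inhibitor MG132; luminescence from HSF1-driven luciferase expression after 8 hours of MG132 stress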
T1 sequence (P38532 whole entry): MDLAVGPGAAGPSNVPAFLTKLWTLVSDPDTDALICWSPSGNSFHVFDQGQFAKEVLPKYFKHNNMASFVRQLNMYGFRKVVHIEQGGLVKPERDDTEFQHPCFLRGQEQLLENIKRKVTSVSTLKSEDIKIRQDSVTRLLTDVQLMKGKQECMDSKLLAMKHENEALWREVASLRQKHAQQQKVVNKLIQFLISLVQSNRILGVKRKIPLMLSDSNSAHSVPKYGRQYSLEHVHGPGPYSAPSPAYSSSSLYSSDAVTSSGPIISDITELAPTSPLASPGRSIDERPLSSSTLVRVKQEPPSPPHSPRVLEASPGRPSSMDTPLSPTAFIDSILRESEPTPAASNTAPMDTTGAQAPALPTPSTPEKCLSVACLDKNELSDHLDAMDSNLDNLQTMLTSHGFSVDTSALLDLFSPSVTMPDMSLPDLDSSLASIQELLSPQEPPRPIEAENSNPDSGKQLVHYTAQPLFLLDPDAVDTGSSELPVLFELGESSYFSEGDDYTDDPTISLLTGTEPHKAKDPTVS

[2] = molecular target: T2, Rac GTPase-activating protein 1 (Homo sapiens, UniProt Q9H0H5); assay: MgcRacGAP GTPase-activating activity inhibitors, confirmation, biochemical, ADP Hunter fluorescence, primary and confirmatory (AID 624330); assay type: functional
T2 sequence (Q9H0H5 whole entry): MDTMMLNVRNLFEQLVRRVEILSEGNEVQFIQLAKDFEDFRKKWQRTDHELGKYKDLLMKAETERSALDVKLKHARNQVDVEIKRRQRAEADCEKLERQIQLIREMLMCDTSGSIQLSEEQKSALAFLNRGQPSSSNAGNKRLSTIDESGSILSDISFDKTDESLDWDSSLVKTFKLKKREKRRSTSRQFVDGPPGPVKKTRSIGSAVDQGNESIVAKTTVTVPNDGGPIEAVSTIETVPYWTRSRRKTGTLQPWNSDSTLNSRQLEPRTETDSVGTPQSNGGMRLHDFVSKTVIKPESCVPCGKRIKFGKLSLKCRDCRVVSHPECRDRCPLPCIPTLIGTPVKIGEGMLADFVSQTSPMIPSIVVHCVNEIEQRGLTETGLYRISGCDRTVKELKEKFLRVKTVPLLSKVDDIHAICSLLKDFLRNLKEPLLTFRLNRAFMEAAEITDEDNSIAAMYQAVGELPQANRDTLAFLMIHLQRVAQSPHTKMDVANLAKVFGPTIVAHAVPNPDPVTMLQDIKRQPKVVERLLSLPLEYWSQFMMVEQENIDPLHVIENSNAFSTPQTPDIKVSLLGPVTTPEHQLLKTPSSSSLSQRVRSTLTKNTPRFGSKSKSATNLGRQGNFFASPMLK

[3] = molecular target: Cytochrome P450 2C9 (Homo sapiens, UniProt P11712)
[4] = molecular target: Cytochrome P450 2D6 (Homo sapiens, UniProt P10635);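 note: CYP2D6 member of a cytochrome P450 panel assay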
[5] = molecular target: T3, Cytochrome P450 1A2 (Homo sapiens, UniProt P05177);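 note: PubChem cytochrome P450 panel assay, CYP1A2 panel member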
T3 sequence (P05177 whole entry): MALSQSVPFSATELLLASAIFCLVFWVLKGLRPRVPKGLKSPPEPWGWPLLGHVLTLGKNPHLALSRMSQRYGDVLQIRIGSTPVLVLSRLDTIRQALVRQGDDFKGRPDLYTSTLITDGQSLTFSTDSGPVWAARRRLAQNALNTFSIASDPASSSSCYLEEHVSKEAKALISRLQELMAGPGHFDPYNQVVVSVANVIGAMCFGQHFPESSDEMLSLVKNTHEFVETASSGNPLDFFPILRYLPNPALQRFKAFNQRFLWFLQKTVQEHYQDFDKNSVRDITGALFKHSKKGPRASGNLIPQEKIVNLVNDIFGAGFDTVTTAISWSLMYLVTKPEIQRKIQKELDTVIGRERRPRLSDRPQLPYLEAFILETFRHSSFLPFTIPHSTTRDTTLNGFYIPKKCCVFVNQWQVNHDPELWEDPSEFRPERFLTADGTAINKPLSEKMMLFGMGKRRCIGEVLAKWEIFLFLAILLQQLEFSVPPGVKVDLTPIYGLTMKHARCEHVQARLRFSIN

[6] = molecular target: T4, Corticotropin-releasing factor receptor 2/Corticotropin-releasing factor-binding protein (Homo sapiens, UniProt P24387+Q13324); assay: Dose Response confirmation of uHTS hits for small molecule antagonists of the CRF-binding protein and CRF-R2 receptor complex.; assay type: functional; conditions: read-out: IC50_Mean
T4 sequence (Q13324 whole entry): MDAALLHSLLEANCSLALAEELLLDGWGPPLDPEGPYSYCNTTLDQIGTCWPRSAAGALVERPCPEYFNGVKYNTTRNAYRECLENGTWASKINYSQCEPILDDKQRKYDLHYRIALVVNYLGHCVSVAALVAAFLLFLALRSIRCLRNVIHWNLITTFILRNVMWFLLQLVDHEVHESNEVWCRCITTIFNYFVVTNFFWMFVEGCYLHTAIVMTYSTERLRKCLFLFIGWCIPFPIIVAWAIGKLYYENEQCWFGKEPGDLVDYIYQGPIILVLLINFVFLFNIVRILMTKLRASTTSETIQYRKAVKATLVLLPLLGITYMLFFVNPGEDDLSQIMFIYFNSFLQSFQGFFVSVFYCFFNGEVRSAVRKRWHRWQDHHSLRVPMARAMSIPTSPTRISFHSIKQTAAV
T4 sequence (P24387 whole entry): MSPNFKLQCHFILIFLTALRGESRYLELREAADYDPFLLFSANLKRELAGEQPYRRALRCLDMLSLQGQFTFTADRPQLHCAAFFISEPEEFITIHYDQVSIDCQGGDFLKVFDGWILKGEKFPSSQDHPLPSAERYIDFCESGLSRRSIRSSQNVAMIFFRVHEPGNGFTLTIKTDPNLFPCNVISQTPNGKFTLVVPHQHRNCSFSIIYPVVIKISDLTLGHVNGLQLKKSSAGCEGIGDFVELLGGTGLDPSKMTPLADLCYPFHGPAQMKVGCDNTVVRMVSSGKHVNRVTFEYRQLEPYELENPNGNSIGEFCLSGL

[7] = molecular target: T4, Corticotropin-releasing factor receptor 2/Corticotropin-releasing factor-binding protein; assay: activators of CRF receptor 2 with binding protein – uHTS hits, confirmation (AID 602473); assay type: functional; conditions: read-out: EC50_Mean
[8] = molecular target: Cytochrome P450 2C19 (Homo sapiens, UniProt P33261); assay: Cytochrome panel assay with activity outcomes. Panel member name: p450-cyp2c19 Compounds with AC50 equal or less than 10 uM are considered active; assay type: functional; conditions: read-out: AC50
Cytochrome P450 2C19, sequence (P33261 whole entry): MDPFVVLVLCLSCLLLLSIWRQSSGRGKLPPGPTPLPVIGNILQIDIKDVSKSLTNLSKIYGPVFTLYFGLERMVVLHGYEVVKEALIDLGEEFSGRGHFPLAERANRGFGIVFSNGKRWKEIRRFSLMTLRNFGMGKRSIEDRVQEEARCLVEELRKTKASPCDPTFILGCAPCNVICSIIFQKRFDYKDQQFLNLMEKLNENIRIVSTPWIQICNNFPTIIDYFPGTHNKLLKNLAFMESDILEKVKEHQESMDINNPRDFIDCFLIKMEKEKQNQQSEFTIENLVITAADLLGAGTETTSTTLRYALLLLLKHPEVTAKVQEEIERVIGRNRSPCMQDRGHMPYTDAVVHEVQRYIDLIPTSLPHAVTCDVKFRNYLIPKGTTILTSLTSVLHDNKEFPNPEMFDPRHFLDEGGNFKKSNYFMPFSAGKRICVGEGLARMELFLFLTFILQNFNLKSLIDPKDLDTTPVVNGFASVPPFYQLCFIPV

Cytochrome P450 2C9, sequence (P11712 whole entry): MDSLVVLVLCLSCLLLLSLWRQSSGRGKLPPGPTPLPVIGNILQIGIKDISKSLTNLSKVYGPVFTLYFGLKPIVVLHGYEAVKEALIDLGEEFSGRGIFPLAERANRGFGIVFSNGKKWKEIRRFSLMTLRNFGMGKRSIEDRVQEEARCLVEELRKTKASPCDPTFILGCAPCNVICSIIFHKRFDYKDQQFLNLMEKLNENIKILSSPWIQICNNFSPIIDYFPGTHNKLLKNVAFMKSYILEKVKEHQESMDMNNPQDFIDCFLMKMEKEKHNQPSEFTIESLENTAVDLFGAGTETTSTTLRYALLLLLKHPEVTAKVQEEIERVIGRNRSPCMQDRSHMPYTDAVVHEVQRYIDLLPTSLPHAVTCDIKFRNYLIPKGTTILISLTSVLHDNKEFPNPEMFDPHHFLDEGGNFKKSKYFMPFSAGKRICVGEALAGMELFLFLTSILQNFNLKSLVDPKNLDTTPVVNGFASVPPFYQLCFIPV
Cytochrome P450 2D6, sequence (P10635 whole entry): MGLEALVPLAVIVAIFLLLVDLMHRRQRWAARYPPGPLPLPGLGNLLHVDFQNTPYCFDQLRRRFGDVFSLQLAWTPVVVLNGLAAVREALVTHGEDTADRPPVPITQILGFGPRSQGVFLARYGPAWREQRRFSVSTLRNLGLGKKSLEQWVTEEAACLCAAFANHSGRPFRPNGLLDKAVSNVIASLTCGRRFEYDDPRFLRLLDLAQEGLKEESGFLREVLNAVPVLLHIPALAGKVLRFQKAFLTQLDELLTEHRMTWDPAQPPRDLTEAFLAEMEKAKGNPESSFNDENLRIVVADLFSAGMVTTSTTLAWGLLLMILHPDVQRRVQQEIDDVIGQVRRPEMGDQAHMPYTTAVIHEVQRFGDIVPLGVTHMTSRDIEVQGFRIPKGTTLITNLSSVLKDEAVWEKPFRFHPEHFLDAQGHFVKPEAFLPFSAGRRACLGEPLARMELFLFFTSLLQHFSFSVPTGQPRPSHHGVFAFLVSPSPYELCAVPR

SMILES: NS(=O)(=O)c1ccc(CN=C(S)NC2CCCCC2)cc1
EC50 [1]: > 195 µM (not active)

SMILES: CCN1CCN(CC(c2ccccc2)c2ccccc2)CC1
IC50 [2]: 197 µM (active)

SMILES: C=CCn1c(SCC(C)=O)nnc1-c1cc(-c2ccccc2)sc1N
IC50 [2]: 29.1 µM (active)

SMILES: CCn1c(SCC(=O)NC(=O)NCc2ccco2)nnc1-c1cccs1
AC50 [3]: 39.8 µM (inconclusive)

SMILES: COc1ccccc1CNc1ccnc(-c2c(C)noc2C)n1
AC50 [4]: 20 µM (inconclusive)
AC50 [3]: 0.501 µM (inconclusive)

SMILES: Nc1ccc(O)c([N+](=O)[O-])c1
IC50 [2]: 42.8 µM (active)

SMILES: c1ccc(-n2c(-c3ccncc3)nnc2-c2ccco2)cc1
IC50 [6]: > 47.1 µM (inactive)
EC50 [7]: > 53 µM (inactive)

SMILES: Cc1ncn(C23CC4CC(CC(C4)C2)C3)n1
IC50 [6]: > 47.1 µM (inactive)
EC50 [7]: > 53 µM (inactive)

SMILES: Cc1cccc(CN2CCN(Cc3ccco3)CC2)c1
IC50 [2]: 87.2 µM (active)

SMILES: c1ccc(-c2nc3ccccc3c3nncn23)cc1
EC50 [1]: > 195 µM (not active)

SMILES: COc1ccc(-c2csc(NC(=O)CN3C(=O)C4CC=CCC4C3=O)n2)cc1OC (stereo not drawn)
IC50 [6]: > 47.1 µM (inactive)
EC50 [7]: > 53 µM (inactive)

SMILES: COC(=O)CC1SC(=O)NC1=Nc1ccc(OC)cc1 (stereo not drawn)
IC50 [6]: > 47.1 µM (inactive)
EC50 [7]: > 53 µM (inactive)

SMILES: Nc1ccn([C@@H]2O[C@H](CNCC3=CCOc4ccc(O)cc43)[C@@H](O)[C@H]2O)c(=O)n1
IC50 [2]: 92.4 µM (active)

SMILES: O=C1/C(=N\O)Cc2ccccc21
AC50 [5]: 14.1 µM (inconclusive)
AC50 [8]: 39.8 µM (inconclusive)

SMILES: O=[N+]([O-])c1cc(O)c(O)c([N+](=O)[O-])c1 [3,5-DINITROCATECHOL (OR-486)]
AC50 [5]: 39.8 µM (inconclusive)

More lines, now with the values ahead:

EC50 [1]: > 195 µM (not active)
SMILES: CCCN1Cc2cccc(C(=O)N3CCN(c4ccc(OC)cc4)CC3)c2C1=O

AC50 [5]: 5.01 µM (inconclusive)
AC50 [3]: 3.16 µM (inconclusive)
SMILES: Cc1ccc(/N=N\c2c(O)ccc3cc(S(=O)(=O)O)ccc23)cc1

EC50 [1]: > 195 µM (not active)
SMILES: Cc1ccc(S(=O)(=O)N2CCN(CCNC(=O)C(=O)NCc3ccccc3)CC2)cc1

IC50 [6]: > 47.1 µM (inactive)
EC50 [7]: > 53 µM (inactive)
SMILES: Cc1onc(-c2ccccc2Cl)c1C(=O)NCc1ccc(N2CCCC2=O)cc1

IC50 [2]: 46.2 µM (active)
SMILES: CCOc1cc(/C=N/NC(=O)c2ccccc2-n2cccc2)ccc1O

IC50 [2]: 57.5 µM (active)
SMILES: COc1ccc(/C=N/NC(=O)c2cccc(S(=O)(=O)N3CCCC3)c2)cc1O

AC50 [5]: 8.91 µM (inconclusive)
AC50 [3]: 8.91 µM (inconclusive)
SMILES: O=[N+]([O-])c1ccc(Nc2nc(N/N=C\c3ccc4c(c3)OCO4)nc(N3CCCCC3)n2)cc1

IC50 [2]: 114 µM (active)
SMILES: COc1ccc(/C=N/NC(=O)c2ccc(CSc3nc(C)cc(C)n3)cc2)cc1O

IC50 [2]: 51.6 µM (active)
SMILES: O=C(N/N=C/c1ccc(O)cc1)c1csc2c1CCCC2

Source: ChEMBL document CHEMBL1201862, “PubChem BioAssay data set” (2004)
